Read-outs that look alike come from different tables or passages of the source.
Tests used:
MOLT-4 = experiment: NCI-60 five-dose assay; type: cell-based, human
K-562 = experiment: NCI-60 five-dose assay; type: cell-based, human
SR = experiment: NCI-60 five-dose assay; type: cell-based, human
[1] = test system: NCI 60 cancer cell line panel; experiment: NCI-60 five-dose assay, full-panel means; type: cell-based; conditions: for GI50: read-out: Mean GI50 (MID GI50, full-panel mean-graph mid-point)
Method: A number of our most promising compounds identified through preliminary cell viability testing (23c, 23d, 23f, 23h, 23l, 23m, 23n, 23o, 24f, 24l, 25n and 26n) were selected for NCI drug screening in the 60-cell-line panel. The panel includes nine subcategories based on cancer tissue types, which include leukemia, ovarian, central nervous system, breast, lung, prostate, skin, renal and colon cancer. The compounds were initially assessed in a one-dose assay at a fixed treatment concentration of 10 µM. The compounds selected for further investigation were progressed to a five-dose assay across the concentration ranges of 0.01, 0.1, 1, 10 and 100 µM [72]. The endpoints assessed in the screening protocol were GI50, TGI and LC50 [72].

PGA-1 cells [2] = conditions: 10 µM
HG-3 cells [3] = experiment: alamarBlue cell viability assay; conditions: for IC50: read-out: HG-3 IC50, HG-3, 24 h
[4] = test system: HG-3 and PGA-1 cell lines; experiment: alamarBlue cell viability assay, mean of both CLL cell lines; type: cell-based, human; conditions: mean of HG-3 and PGA-1
CCRF-CEM = experiment: NCI-60 five-dose assay; type: cell-based, human
PGA-1 cells [5] = experiment: alamarBlue cell viability assay; conditions: for IC50: read-out: PGA-1 IC50
RPMI-8226 = experiment: NCI-60 five-dose assay; type: cell-based, human
leukemia cell panel = experiment: NCI-60 five-dose assay, leukemia cell panel mean; type: cell-based, human; conditions: mean across the six leukemia cell lines
HL-60(TB) = experiment: NCI-60 five-dose assay; type: cell-based, human
HG-3 cells [6] = conditions: 10 µM
[7] = HPLC stability study in phosphate buffers; type: physicochemical; conditions: 37 °C
Method: A preliminary stability study was carried out on selected chalcones, maleic anhydride and maleimide adducts at acidic, neutral and basic conditions (pH 4, 7.4 and 9) using HPLC to determine suitability for further preclinical investigations. […] A possible degradation route for the maleimide 23n could be through the hydrolysis of the cyclic imide of the maleimide ring, leading to the resultant amic acid product.
All samples were analyzed using acetonitrile–water (80:20%, 70:30%, 60:40% isocratic) as the mobile phase over 10 min and a flow rate of 1 mL/min. Stock solutions were prepared by dissolving 5 mg of compounds in a mobile phase ([(acetonitrile (80%): water (20%)], 10 mL). Anhydride 22h was not detected at its retention time of 5.2 min at pH 9.0. The data presented represent the results of single experiments.
The HPLC stability studies for compounds 21a, 21i, 22h, 23a, 23g, 23n, 24a, 24h, 26a and 26n were performed using a Symmetry® column (C18, 5 µm, 4.6 × 150 mm), a Waters 2487 Dual Wavelength Absorbance detector, and an HPLC pump: Waters 1525 binary and Autosampler; Waters 717 plus (Waters Corporation, Milford, MA, USA), mobile phase [(acetonitrile (80%) and water (20%)] with a typical run time of 10 min and a flow rate of 1 mL/min with detection at 254 nm. The selected compounds 21a, 21i, 22h, 23a, 23g, 23n, 24a, 24h, 26a and 26n (5 mg) in the mobile phase (10 mL) provided the stock solution for the analysis. The phosphate buffers were prepared at pH values of 4, 7.4 and 9, as described in the British Pharmacopoeia monograph 2019. The stock solution (30 µL) was added to the appropriate buffer (1 mL) and retained at 37 °C. Samples were then analyzed over the following 24-h period at selected time intervals (t = 0 min, 5 min, 30 min, 60 min, 90 min, 120 min and 24 h).

[8] = mean over NCI 60 cell line panel

SMILES: O=C(/C=C/c1c2ccccc2cc2ccccc12)c1ccc(I)cc1 [Compound 21g, (E)-3-(anthracen-9-yl)-1-(4-iodophenyl)prop-2-en-1-one]
- melting point: 167 to 173 °C

SMILES: CCc1ccc(C(=O)/C=C/C23c4ccccc4C(c4ccccc42)C2C(=O)NC(=O)C23)cc1 (centres unmarked) [Compound 23c, 9-((E)-3-(4-Ethylphenyl)-3-oxoprop-1-en-1-yl)-9,10-dihydro-9,10-[3,4]epipyrroloanthracene-12,14-dione]
- GI50 (MOLT-4; MOLT-4): 2230 nM
- GI50 (K-562; K-562): 2420 nM
- GI50 (SR): 1370 nM
- CC50 [1]: 17000 nM
- Mean TGI (MID TGI, total growth inhibition) [1, 8]: 4670 nM
- GI50 [1, 8]: 1900 nM
- cell viability (PGA-1 cells [2]): 7%
- IC50 (HG-3 cells [3]): 4610 nM
- IC50 [4]: 3670 nM
- GI50 (CCRF-CEM): 2660 nM
- IC50 (PGA-1 cells [5]; PGA-1, 24 h): 2720 nM
- GI50 (RPMI-8226; RPMI-8226): 1870 nM
- GI50 (leukemia cell panel): 1770 nM
- GI50 (HL-60(TB); HL-60(TB)): 70 nM

SMILES: O=C(/C=C/C12c3ccccc3C(c3ccccc31)C1C(=O)NC(=O)C12)c1ccccc1 (centres unmarked) [Compound 23f, (E)-9-(3-oxo-3-phenylprop-1-en-yl)-9,10-dihydro-9,10-[3,4]epipyrroloanthracene-12,14-dione]
- GI50 (MOLT-4; Homo sapiens, MOLT-4, MOLT-4): 2170 nM
- GI50 (K-562; Homo sapiens, K562, K-562): 1940 nM
- GI50 (SR; Homo sapiens): 1570 nM
- GI50 ([1]; Homo sapiens, mean over NCI 60 cell line panel): 1820 nM
- CC50 ([1]; Homo sapiens, mean over NCI 60 cell line panel, read-out: Mean LC50 (MID LC50)): 14800 nM
- Mean TGI (MID TGI, total growth inhibition) [1, 8]: 4570 nM
- cell viability (HG-3 cells [3]; HG-3, 10 µM, 24 h, vehicle = 100%, 10 µM): 2%
- IC50 (HG-3 cells [3]; Homo sapiens): 3550 nM
- IC50 ([4]; Homo sapiens, CLL cell): 7430 nM
- GI50 (CCRF-CEM; Homo sapiens): 2160 nM
- IC50 (PGA-1 cells [5]; Homo sapiens, 24 h): 11300 nM
- viability at 10 µM (PGA-1 cells [5]; Homo sapiens, 24 h, read-out: cell viability): 13.9%
- GI50 (RPMI-8226; Homo sapiens, RPMI-8226, RPMI-8226): 1520 nM
- GI50 (leukemia cell panel; Homo sapiens): 1810 nM
- GI50 (HL-60(TB); Homo sapiens, HL-60, HL-60(TB)): 1500 nM

SMILES: O=C(/C=C/C12c3ccccc3C(c3ccccc31)C1C(=O)N(c3ccccc3)C(=O)C12)c1ccccc1 (centres unmarked) [Compound 24f, (E)-9-(3-Oxo-3-phenylprop-1-en-yl)-13-phenyl-9,10-dihydro-9,10-[3,4]epipyrroloanthracene-12,14-dione]
- GI50 (MOLT-4; MOLT-4): 1230 nM
- GI50 (K-562; K-562): 1390 nM
- GI50 (SR): 2030 nM
- CC50 [1]: 72400 nM
- Mean TGI (MID TGI, total growth inhibition) [1, 8]: 19950 nM
- GI50 [1, 8]: 2090 nM
- cell viability (PGA-1 cells [2]): 26%
- IC50 (HG-3 cells [3]): 7350 nM
- IC50 [4]: 7240 nM
- GI50 (CCRF-CEM): 1450 nM
- IC50 (PGA-1 cells [5]; PGA-1, 24 h): 7130 nM
- GI50 (RPMI-8226; RPMI-8226): 1550 nM
- GI50 (leukemia cell panel): 1450 nM
- GI50 (HL-60(TB); HL-60(TB)): 1020 nM

SMILES: O=C(c1ccccc1)c1ccc(N2C(=O)C3C4c5ccccc5C(/C=C/C(=O)c5ccccn5)(c5ccccc54)C3C2=O)cc1 (centres unmarked) [Compound 26n, (E)-13-(4-Benzoylphenyl)-9-(3-oxo-3-(pyridin-2-yl)prop-1-en-1-yl)-9,10-dihydro-9,10-[3,4]epipyrroloanthracene-12,14-dione]
- GI50 (MOLT-4; MOLT-4): 2290 nM
- GI50 (K-562; K-562): 1770 nM
- GI50 (SR): 1370 nM
- cell viability (HG-3 cells [6]): 4%
- CC50 [1]: 100000 nM
- Mean TGI (MID TGI, total growth inhibition) [1, 8]: 100000 nM
- GI50 [1, 8]: 7580 nM
- Half-life pH 4 ([7]; pH 4 buffer): 8.5 h
- % remaining 24 h pH 4 ([7]; pH 4 buffer, 24 h, HPLC): 10.97%
- Half-life pH 7.4 ([7]; pH 7.4 buffer): 16.5 h
- % remaining 24 h pH 7.4 ([7]; pH 7.4 buffer, 24 h, HPLC): 40.39%
- Half-life pH 9 ([7]; pH 9 buffer): over 24 h
- % remaining 24 h pH 9 ([7]; pH 9 buffer, 24 h, HPLC): 51.20%
- cell viability (PGA-1 cells [2]): 18%
- decrease in cell viability compared to 26f (HG-3 cells [3]; HG-3, 1 µM): 34%
- decrease in cell viability compared to 26f (HG-3 cells [3]; HG-3, 10 µM): 82%
- IC50 (HG-3 cells [3]): 1850 nM
- IC50 [4]: 1120 nM
- GI50 (CCRF-CEM): 2590 nM
- decrease in cell viability compared to 26f (PGA-1 cells [5]; PGA-1, 1 µM): 20%
- decrease in cell viability compared to 26f (PGA-1 cells [5]; PGA-1, 10 µM): 63%
- IC50 (PGA-1 cells [5]; PGA-1, 24 h): 390 nM
- GI50 (RPMI-8226; RPMI-8226): 2490 nM
- GI50 (leukemia cell panel): 2070 nM
- GI50 (HL-60(TB); HL-60(TB)): 1900 nM

SMILES: O=C(/C=C/C12c3ccccc3C(c3ccccc31)C1C(=O)NC(=O)C12)c1ccncc1 (centres unmarked) [Compound 23m]
- GI50 (MOLT-4; MOLT-4): 2570 nM
- GI50 (K-562; K-562): 1880 nM
- GI50 (SR): 1760 nM
- CC50 [1]: 28200 nM
- Mean TGI (MID TGI, total growth inhibition) [1, 8]: 7760 nM
- GI50 [1, 8]: 2510 nM
- GI50 (CCRF-CEM): 2390 nM
- GI50 (RPMI-8226; RPMI-8226): 2110 nM
- GI50 (leukemia cell panel): 2080 nM
- GI50 (HL-60(TB); HL-60(TB)): 1760 nM

SMILES: O=C(/C=C/C12c3ccccc3C(c3ccccc31)C1C(=O)NC(=O)C12)c1ccco1 (centres unmarked) [Compound 23o]
- GI50 (MOLT-4; MOLT-4): 1770 nM
- GI50 (K-562; K-562): 2570 nM
- CC50 [1]: 11000 nM
- Mean TGI (MID TGI, total growth inhibition) [1, 8]: 3890 nM
- GI50 [1, 8]: 1780 nM
- GI50 (CCRF-CEM): 1890 nM
- GI50 (RPMI-8226; RPMI-8226): 1680 nM
- GI50 (leukemia cell panel): 1640 nM
- GI50 (HL-60(TB); HL-60(TB)): 320 nM

SMILES: O=C(/C=C/C12c3ccccc3C(c3ccccc31)C1C(=O)NC(=O)C12)c1ccc(Cl)cc1Cl (centres unmarked) [Compound 23d]
- GI50 (MOLT-4; MOLT-4): 2160 nM
- GI50 (K-562; K-562): 2190 nM
- GI50 (SR): 1250 nM
- CC50 [1]: 29500 nM
- Mean TGI (MID TGI, total growth inhibition) [1, 8]: 7580 nM
- GI50 [1, 8]: 2510 nM
- GI50 (CCRF-CEM): 1240 nM
- GI50 (RPMI-8226; RPMI-8226): 1100 nM
- GI50 (leukemia cell panel): 1590 nM
- GI50 (HL-60(TB); HL-60(TB)): 1580 nM

SMILES: O=C(/C=C/C12c3ccccc3C(c3ccccc31)C1C(=O)N(c3ccccc3)C(=O)C12)c1ccc(Cl)cc1 (centres unmarked) [Compound 24l, (E)-9-(3-(4-Chlorophenyl)-3-oxoprop-1-en-1-yl)-13-phenyl-9,10-dihydro-9,10-[3,4] epipyrroloanthracene-12,14-dione]
- GI50 (MOLT-4; MOLT-4): 760 nM
- GI50 (K-562; K-562): 1550 nM
- GI50 (SR): 1070 nM
- cell viability (HG-3 cells [6]): 24%
- CC50 [1]: 43700 nM
- Mean TGI (MID TGI, total growth inhibition) [1, 8]: 10720 nM
- GI50 [1, 8]: 1700 nM
- cell viability (PGA-1 cells [2]): 17%
- IC50 (HG-3 cells [3]): 3450 nM
- IC50 [4]: 1880 nM
- GI50 (CCRF-CEM): 570 nM
- IC50 (PGA-1 cells [5]; PGA-1, 24 h): 310 nM
- GI50 (RPMI-8226; RPMI-8226): 1160 nM
- GI50 (leukemia cell panel): 980 nM
- GI50 (HL-60(TB); HL-60(TB)): 800 nM

Source: publication PMC11359702, “Synthesis and Biochemical Evaluation of Ethanoanthracenes and Related Compounds: Antiproliferative and Pro-Apoptotic Effects in Chronic Lymphocytic Leukemia (CLL)” (Pharmaceuticals, 2024)
